US20080280837A1, “Biologically Active Compounds with Anti-Angiogenic Properties” (priority 2004, published 2008)
Where two headings read alike, the source gives them in different places.

Tests used:
HUVEC tube formation = experiment: Matrigel tube formation assay; type: cell-based, human; settings: Homo sapiens, 22 h
Description: HUVEC (Clonetics) were plated in 96 well plates in EGM-2 media (Clonetics) at 2.5 to 3×10^4 cells per well. Cells of less than 6 passages were used in all studies. Wells were precoated with 50 μL growth factor containing Matrigel (Becton Dickinson). HUVEC were allowed to form tubes by incubation at 37° C. in 5% CO2 for 22 hrs. In test wells compound was added in the desired concentration. Photographic images of the wells ×4 magnification were used to determine size of the tubes, length of tubes and number of junctions using image analysis software.

[1] = test system: Human Umbilical Vein Endothelial Cells (HUVEC); experiment: Endothelial cell proliferation assay (MTS); type: cell-based; settings: 48 hrs
Description: Human Umbilical Vein Endothelial Cells (HUVEC from Clonetics) were plated in 96 well plates at 1000 cell per well in EGM-2 medium (Clonetics). Cells were grown overnight at 37° C. in 5% CO2. Fresh EGM-2 medium containing compound at the desired concentration was added to the wells and the cells allowed to grow for a further 48 hrs. A MTS (Promega) colorimetric assay was performed after 48 hrs to determine cell growth according to the manufacturers instructions. Results are presented in terms of percentage growth.

SSTR-4 = biological target: T1, SSTR-4 (Homo sapiens, UniProt P31391); experiment: Radioligand binding screen against somatostatin subtype SSTR-4 (SST4 assay); settings: concentration required to displace 50% of the competitive radioligand; read-out: IC50 SSTR4
T1 construct: expressed in transfected cells
T1 sequence (P31391 whole entry): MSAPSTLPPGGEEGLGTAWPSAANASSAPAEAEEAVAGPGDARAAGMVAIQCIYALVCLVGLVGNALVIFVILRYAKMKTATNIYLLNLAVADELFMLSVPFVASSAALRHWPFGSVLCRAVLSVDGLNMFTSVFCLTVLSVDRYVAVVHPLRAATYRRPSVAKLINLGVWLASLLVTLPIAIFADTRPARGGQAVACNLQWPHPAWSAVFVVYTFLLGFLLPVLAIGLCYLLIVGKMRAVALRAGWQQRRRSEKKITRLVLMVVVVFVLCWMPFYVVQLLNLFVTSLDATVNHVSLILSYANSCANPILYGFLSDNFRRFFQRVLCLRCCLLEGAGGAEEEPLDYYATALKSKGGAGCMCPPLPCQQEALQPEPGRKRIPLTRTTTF
Description: (§1) Receptor membrane preparations containing the desired cloned receptor (for example cloned human somatostatin receptor subtype 5, SSTR5) and radio-labeled ligand (for example 3-[^125I]iodotyrosyl^11 Somatostatin-14)) were diluted at the concentration required for testing and according to the specific parameters associated with the selected receptor-ligand combination, including receptor Bmax, ligand Kd and any other parameters necessary to optimize the experimental conditions. When tested for competition activity to the reference ligand, “compound 1” was mixed with membrane suspension and the radiolabeled reference ligand (with or without an excess of cold ligand to the receptor for determination of non-specific binding) and incubated at the temperature required by internal standard operating procedures. Following incubation, the binding reaction was stopped by the addition of ice-cold washing buffer and filtered on appropriate filters, which are then counted. Data analysis and curve-fitting was performed with XLfit (IDBS).
(§2) 10 mM solutions of test compounds in 100% DMSO were prepared. ˜160 μl was used for each dilution (20 μl/well in triplicate).
(§3) A 1.25 mM assay stock was prepared by making a 1:8 dilution of the 10 mM solution. (To 30 μL of the 10 mM solution was added 210 μL milli-Q H2O. A 1:5 dilution series in milli-Q H2O was then prepared.
Assays were performed in triplicate at each concentration within the 1:5 dilution series: 250 μM, 50 μM, 10 μM, […], 0.4 μM, 0.08 μM, 0.016 μM, 0.0032 μM, etc. (for SST4 assay) and 125 μM, 10 μM, 2 μM, 1 μM, 0.5 μM, etc (for SST5 assay).
(§4) In primary screening experiments compounds were tested in duplicate for a particular concentration.

[2] = In vivo pharmacokinetic evaluation after i.v. and p.o. administration to rats; parameters: species or system rat; settings: for clearance: read-out: Cltotal (total plasma clearance); for Vd: read-out: VdB (volume of distribution during the elimination phase); for bioavailability: calculated using AUC0-480, read-out: BA (oral bioavailability)
Description: Intravenous infusion of “compound 1” (2 mg/Kg) over 5 minutes to two rats and arterial blood sampled up to 24 hours.
Oral administration of “compound 1” (25 mg/Kg as HPMC suspension) via oral gavage to two rats and arterial blood sampled up to 24 hours.
Plasma concentrations of “compound 1” determined by MS (LOQ<0.01 μM)
CLtotal=total plasma clearance after IV administration Vdβ=volume of distribution during the elimination phase after IV administration BA=oral bioavailability AUCIV=area under the plasma concentration versus time profile from time zero to infinity after IV administration AUCoral=area under the plasma concentration versus time profile from time zero to infinity after oral administration β=terminal elimination rate constant after IV administration

3T3 cell line = experiment: Cell proliferation assay (CellTiter 96 AQueous One) as indicator of toxicity, 3T3; type: cell-based; settings: 3T3, 100 μM
Description: A simple cell proliferation assay was used to determine the in vitro cytotoxicity of “compound 1.” Selected cell lines were cultured according to their specific requirements. The optimal cell density required for each cell line was determined. All compounds were tested at a single concentration in triplicate. Cell viability was determined using the CellTiter 96® AQueous One reagent from Promega Corporation.
Assays are performed by adding the test compound to the cells in culture and incubating the cells for a fixed period. The number of viable cells remaining after the incubation period is determined by adding a small amount of the CellTiter 96® AQueous One Solution Reagent directly to culture wells, incubating for 1-4 hours and then recording absorbance at 490 nm with a 96 well plate reader.
Controls in the assay include untreated cells, wells without cells and cells treated with know cytotoxic agents. Data is presented as % inhibition of cell proliferation.

SSTR-3 = biological target: T2, SSTR-3 (Homo sapiens, UniProt P32745); experiment: Radioligand binding screen against somatostatin subtype SSTR-3
T2 construct: expressed in transfected cells
T2 sequence (P32745 whole entry): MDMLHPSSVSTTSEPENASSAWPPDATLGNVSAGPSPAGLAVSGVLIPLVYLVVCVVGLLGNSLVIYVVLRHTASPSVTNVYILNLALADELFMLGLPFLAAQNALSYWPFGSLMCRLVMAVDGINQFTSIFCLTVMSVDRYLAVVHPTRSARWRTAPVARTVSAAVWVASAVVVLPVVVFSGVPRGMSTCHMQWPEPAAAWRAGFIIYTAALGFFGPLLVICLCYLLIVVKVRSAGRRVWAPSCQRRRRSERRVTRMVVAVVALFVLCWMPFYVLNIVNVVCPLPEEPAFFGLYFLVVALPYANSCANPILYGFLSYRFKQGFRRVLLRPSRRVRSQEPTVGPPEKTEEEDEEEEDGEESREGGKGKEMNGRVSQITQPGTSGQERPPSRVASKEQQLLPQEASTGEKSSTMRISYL
Description: as §1, §2, §3, §4

[3] = rat, plasma, iv, 2 mg/Kg, IV, Mean ± SD of two rats
[4] = rat, plasma, iv, 2 mg/Kg, Rat 1, IV
[5] = rat, plasma, iv, 2 mg/Kg, Rat 2, IV

- IC50 (SSTR-4): > 12.5 µM
- VdB (volume of distribution during the elimination phase) ([2]; IV, Mean ± SD of two rats): 3.29 ± 0.56 L/kg
- Tmax ([2]; Rat 4, PO 25 mg/Kg): 0.333 h
- Tmax ([2]; plasma, Rat 3, PO 25 mg/Kg, read-out: Tmax (converted)): 0.333 h
- Tmax ([2]; rat, plasma, 25 mg/Kg, PO, mean of two rats, read-out: Tmax (converted)): 0.333 h
- clearance [2, 3]: 8.2 mL/min/kg
- Vd [2, 3]: 3.3 L/kg
- half-life ([2]; rat, plasma, iv, 2 mg/Kg, IV, Mean ± SD of two rats, read-out: t1/2 (elimination half-life) (converted)): ~4.6 h
- Cmax ([2]; rat, plasma, iv, 2 mg/Kg, Mean ± SD of two rats): 31.9 ± 2.27 µM
- Cmax ([2]; rat, plasma, iv, 2 mg/Kg, Rat 1, IV infusion 2 mg/Kg over 5 minutes): 30.3 µM
- clearance [2, 4]: 7.53 mL/min/kg
- Vd [2, 4]: 2.9 L/kg
- half-life ([2]; rat, plasma, iv, 2 mg/Kg, Rat 1, IV, read-out: t1/2 (converted)): 4.45 h
- Cmax ([2]; rat, plasma, iv, 2 mg/Kg, Rat 2, IV infusion 2 mg/Kg over 5 minutes): 33.5 µM
- clearance [2, 5]: 8.86 mL/min/kg
- Vd [2, 5]: 3.69 L/kg
- half-life ([2]; rat, plasma, iv, 2 mg/Kg, Rat 2, IV, read-out: t1/2 (converted)): 4.76 h
- Cmax ([2]; rat, plasma, po, 25 mg/Kg, Mean ± SD of two rats): 4.95 ± 2.84 µM
- bioavailability ([2]; rat, plasma, po, 25 mg/Kg, PO, Mean ± SD of two rats): ~5.2%
- bioavailability ([2]; rat, plasma, po, 25 mg/Kg, Rat 4, PO): 5.38%
- Cmax ([2]; rat, plasma, po, 25 mg/kg, Rat 3, PO 25 mg/Kg HPMC suspension): 6.95 µM
- Cmax ([2]; rat, plasma, po, 25 mg/kg, Rat 4, PO 25 mg/Kg HPMC suspension): 2.94 µM
- IC50 (SSTR-3; concentration required to displace 50% of the competitive radioligand, read-out: IC50 SSTR3): 8.5 µM
- selectivity SSTR3 (SSTR-3; normalized IC50: lowest IC50 for a compound = 1): 26.4
- Hillslope SSTR3 (SSTR-3; slope of binding curve): 1.04
SMILES: COC[C@H]1O[C@H](OCCc2ccccc2)[C@H](NC(=O)CCCN)[C@@H](OCc2ccc3ccccc3c2)[C@@H]1O [Compound 1]
- EC50 (HUVEC tube formation): 250 µM
- Percent cell growth at 125 µM ([1]; 125 uM): 69%
- Percent cell growth at 250 µM ([1]; 250 uM): 17%
- Inhibition of cell proliferation (3T3 cell line): no inhibitory effect
